Experimental findings from ChEMBL document CHEMBL1201862, “PubChem BioAssay data set” (2004) are described below.

Holding throughout (assay): NCI-60 cell line screen, 48 h
Test [1] concerns SK-OV-3.
Test [2] relates to SR.
For test [3], the system named is CAKI-1.
The test system of test [4] is SW-620.
Test [5] deals with LOX IMVI.
The subject of test [6] is CCRF-CEM.
For test [7], the system named is RXF 393.
Test [8] has as its system U-251.
Test [9] concerns A498.
The test system of test [10] is HCC 2998.
For test [11], the system named is UO-31.
Test [12] deals with HCT-15.
Test [13] deals with HL-60.
Test [14] deals with SF-539.
Test [15] relates to SK-MEL-5.
The subject of test [16] is NCI-H226.

Each structure is given as a SMILES string.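 In this assay, cells in 96-well plates receive the compound at five concentrations for 48 hours. Endpoints are linearly interpolated between the surrounding concentrations. GI50 = concentration required for 50% inhibition of growth.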 Active and inactive are the calls of the source. Cut-off read from the data, not from the text of the source: active = GI50 up to about 1.1 µM and inactive = higher. Bounds are passed on as bounds.

As for `CN1OC(CO)CC12C1CC3CC(C1)CC2C3` (stereo not drawn), the GI50 in test [1], in [2], in test [3], in test [4], in [5] and in test [6] was > 100 µM (inactive) throughout. Moreover, the GI50 was > 100 µM (inactive) in [7]; > 100 µM (inactive) in [8]; > 100 µM (inactive) in test [9]; > 100 µM (inactive) in [10]; > 100 µM (inactive) in test [11]; more than 100 µM in test [12]. For the same compound, the GI50 in test [13], in test [14] and in test [15] was > 100 µM (inactive) in each case.
Turning to `CCC/C(=N/NC(=O)C(N)=O)C(CC)C(=O)CCC(=O)N(Cc1ccccc1)Cc1ccccc1` (stereo not drawn), the GI50 in test [1], in test [2], in test [3], in test [4], in test [5] and in test [6] was > 100 µM (inactive) in each case. Also, the GI50 in test [7], in test [16], in test [8], in [9], in test [10] and in test [11] was > 100 µM (inactive) in each case. Moreover, the GI50 in test [12] was more than 100 µM; in test [13], > 100 µM (inactive); in test [14] it was > 100 µM (inactive); in test [15], > 100 µM (inactive).
Regarding `COc1ccc2c3c([nH]c2c1[N+](=O)[O-])C(C)=NCC3`, the GI50 in test [2] is 40.4 µM (inactive); in test [3] it was 47.1 µM (inactive); in test [4], 53.1 µM (inactive); in [5], 50.9 µM (inactive); in test [6], 93.5 µM (inactive); in test [7] it was > 100 µM (inactive). Besides, the GI50 was 51.8 µM (inactive) in test [16]; > 100 µM (inactive) in test [8]; 18.8 µM (inactive) in test [9]; > 100 µM (inactive) in [10]; 98.4 µM (inactive) in test [11]; more than 100 µM in [12]. The results for the GI50 in test [13] and in test [14] were > 100 µM (inactive) and 65.6 µM (inactive), respectively.
Consider `C/C(=N\NC(=S)NC(CCC(=O)O)C(=O)O)c1cnccn1` (stereo not drawn), for which the GI50 in test [1], in test [2], in [4], in test [5], in test [6] and in test [7] was > 100 µM (inactive) each time. The GI50 in test [16] was > 100 µM (inactive); in [8], > 100 µM (inactive); in test [9], > 100 µM (inactive); in test [10], > 100 µM (inactive); in test [11], > 100 µM (inactive); in test [12], more than 100 µM. Moreover, the GI50 in [13], in test [14] and in test [15] was > 100 µM (inactive) each time.
For `N#Cc1c(-c2ccccc2)cc(-c2ccc(N)cc2)[nH]c1=O`, the GI50 in test [1], in test [2], in [4], in [5], in test [6] and in test [7] was > 100 µM (inactive) in each case. In addition, the GI50 in test [16] is > 100 µM (inactive); in test [8] it was > 100 µM (inactive); in test [9], > 100 µM (inactive); in test [10], > 100 µM (inactive); in [11] it was > 100 µM (inactive); in [12], more than 100 µM. Moreover, the GI50 in test [13], in test [14] and in test [15] was > 100 µM (inactive) each time.
On to `C=CCN1C(=O)C/C(=C2/CCC(=O)N2CC=C)C1=O`, for which the GI50 in [1], in test [2], in test [3], in [4], in test [5] and in test [6] was > 100 µM (inactive) throughout. Moreover, the GI50 in test [7], in test [16], in test [8], in test [9], in test [10] and in [11] was > 100 µM (inactive) each time. Also, the GI50 is more than 100 µM in [12], > 100 µM (inactive) in test [13], > 100 µM (inactive) in [14] and > 100 µM (inactive) in test [15].
With `Cc1ccc(S(=O)(=O)N/N=C(\CCN2CCCC2)CC(c2ccccc2)c2c(O)c3ccccc3oc2=O)cc1` (stereo not drawn), the GI50 was > 100 µM (inactive) in [1]; > 100 µM (inactive) in [2]; > 100 µM (inactive) in test [3]; 49.5 µM (inactive) in test [4]; > 100 µM (inactive) in test [5]; 95.5 µM (inactive) in test [6]. For the same compound, the GI50 is > 100 µM (inactive) in [7]; > 100 µM (inactive) in [16]; > 100 µM (inactive) in [8]; > 100 µM (inactive) in test [9]; > 100 µM (inactive) in [11]; more than 100 µM in test [12]. Moreover, the GI50 in test [13], in [14] and in test [15] was > 100 µM (inactive) each time.
In the case of `O=C1C2=C(SCCS2)C(=O)c2ccccc21`, the GI50 was 1.73 µM (inactive) in test [1]; 1.2 µM (inactive) in test [2]; 1.9 µM (inactive) in test [3]; 2.11 µM (inactive) in test [4]; 0.902 µM (active) in [5]; 0.783 µM (active) in test [6]. Moreover, the GI50 in [7] was 2.1 µM (inactive); in test [16], 2.08 µM (inactive); in test [8], 1.64 µM (inactive); in test [9], 2.03 µM (inactive); in [10], 1.65 µM (inactive); in test [11], 1.93 µM (inactive). The GI50 is 1.7 µM in test [12], 2.31 µM (inactive) in test [13], 1.72 µM (inactive) in test [14] and 1.69 µM (inactive) in test [15].
Consider `CC(C)(C)C1=Cc2cc3cc(C(C)(C)C)[nH]c(=O)c3cc2S(=O)(=O)N1`, for which the GI50 in [1] is 31.2 µM (inactive); in test [2], 23.7 µM (inactive); in test [3], 12.2 µM (inactive); in [4], 21 µM (inactive); in test [6], 26.6 µM (inactive); in test [16] it was 19.9 µM (inactive). Besides, the GI50 in [8] is 18 µM (inactive); in test [9], 53.2 µM (inactive); in [11] it was 17.1 µM (inactive); in test [13], 21.2 µM (inactive).
Regarding `CSc1ccc(Cc2cc(C(C)(C)C)cc(C(C)(C)C)c2O)cc1`, the GI50 is 27 µM (inactive) in [1]; 8.75 µM (inactive) in test [2]; 16.7 µM (inactive) in [3]; 16.1 µM (inactive) in test [4]; 10.4 µM (inactive) in test [5]; 15.5 µM (inactive) in test [6]. Moreover, the GI50 in test [7] was 13.3 µM (inactive); in test [8], 14.8 µM (inactive); in [9] it was 15.6 µM (inactive); in [10], 18.5 µM (inactive); in test [11], 17 µM (inactive); in test [12] it was 14 µM. The GI50 in test [13] was 8.67 µM (inactive); in [14], 17.3 µM (inactive); in test [15] it was 15.6 µM (inactive).
Turning to `CCN1CCN(c2ccc(Nc3ccnc4ccc5nn(C)nc5c34)cc2)CC1`, the GI50 in test [1] was 13.8 µM (inactive); in test [2], 4.22 µM (inactive); in [3] it was 12.8 µM (inactive); in test [4] it was 4.22 µM (inactive); in [5], 7.18 µM (inactive); in test [6], > 100 µM (inactive). The GI50 was 10.2 µM (inactive) in test [7]; 12.3 µM (inactive) in [16]; 13.5 µM (inactive) in test [8]; 13.2 µM (inactive) in test [10]; 12.8 µM (inactive) in test [11]; 13.8 µM in [12]. The GI50 in test [13] was 94.8 µM (inactive); in test [14], 13.8 µM (inactive); in test [15] it was 15.2 µM (inactive).
For `O=C(N/N=C/c1cc(Br)ccc1O)N/N=C/c1cc(Br)ccc1O`, the GI50 is 69 µM (inactive) in test [1]; 3.5 µM (inactive) in test [2]; 2.79 µM (inactive) in [3]; 1.73 µM (inactive) in test [4]; 5.85 µM (inactive) in [5]; 1.4 µM (inactive) in [6]. In addition, the GI50 in test [7] is > 100 µM (inactive); in test [16], 2.02 µM (inactive); in test [8] it was 3.55 µM (inactive); in test [9], > 100 µM (inactive); in test [11] it was 0.64 µM (active); in [13], 1.25 µM (inactive). In addition, the GI50 in [14] is 0.877 µM (active); in test [15] it was 2.49 µM (inactive).
Regarding `CCOC(=O)NC(=O)c1cn(C2OC(COC(=O)CCCCCCCCC(=O)OCC3OC(n4cc(C(=O)NC(=O)OCC)c(=O)[nH]c4=O)C(O)C3O)C(O)C2O)c(=O)[nH]c1=O` (stereo not drawn), the GI50 in test [2], in test [3], in [4], in [5], in [6] and in [7] was > 100 µM (inactive) throughout. Further, the GI50 in test [16] was > 100 µM (inactive); in test [9], > 100 µM (inactive); in test [10], > 100 µM (inactive); in test [11], > 100 µM (inactive); in test [12], more than 100 µM; in [13] it was > 100 µM (inactive). The GI50 in test [14] and in test [15] was > 100 µM (inactive) in each case.
Regarding `CC1CC(c2ccc(Cl)cc2)=Nc2ccccc2S1` (stereo not drawn), the GI50 in test [1], in test [2], in test [4], in test [6], in [7] and in test [16] was > 100 µM (inactive) throughout. Besides, the GI50 in [8] is > 100 µM (inactive); in [9], > 100 µM (inactive); in test [10], > 100 µM (inactive); in [11], > 100 µM (inactive); in [12], more than 100 µM; in test [13], > 100 µM (inactive). For the same compound, the GI50 in test [14] is > 100 µM (inactive).
